The values that follow come from ChEMBL document CHEMBL4840345, “Penispidins A-C, Aromatic Sesquiterpenoids from Penicillium virgatum and Their Inhibitory Effects on Hepatic Lipid Accumulation” (J Nat Prod, 2021).

Data set [1] relates to HepG2. The data set can be described thus: Cytotoxicity against human HepG2 cells assessed as cell viability at 10 uM measured after 24 hrs by MTT assay. As to conditions: hepg2, 24 h. Type of data set: cell-based.
Data set [2] deals with HepG2. Briefly: Hypolipidemic activity in human HepG2 cells assessed as inhibition of oleic acid-BSA induced triglyceride accumulation at 10 uM after 24 hrs. Type of data set: functional, cell-based.
Data set [3] has as its system HepG2. The data set can be described thus: Hypolipidemic activity in human HepG2 cells assessed as inhibition of oleic acid-BSA induced intracellular lipid accumulation at 10 uM after 24 hrs by Oil Red O staining based microscopic assay. Type of data set: functional, cell-based.

Active and inactive are the calls of the source. No cut-off for these calls is given here.

With `C[C@@]12CCC[C@@](C)(C1)c1ccc(C(=O)O)cc1O2`, the Activity result with HepG2 [1] was “Non-Toxic”. On the same count and under the same terms, with `C[C@]12CCC[C@](C)(C1)c1ccc(C(=O)O)cc1O2` the entry was “Non-Toxic”. Consider `COC(=O)c1ccc2c(c1)OC(C)(C)[C@@H]1CC[C@]21C`, for which the outcome in the data set on HepG2 [2] was Active. Besides, the inhibition result with HepG2 [3] was “Active”. The Activity result in the data set on HepG2 [1] is listed as “Non-Toxic”. As for `COC(=O)c1ccc2c(c1)O[C@]1(C)CCC[C@@]2(C)C1`, the Activity entry in the data set on HepG2 [1] was “Non-Toxic”.
